Data from the RepoRT retention time repository.

Test: RP, Thermo Scientific Hypersil GOLD, 1.9 µm, 40 °C, 0.4 mL/min; A: water + 0.1% formic acid, pH 3; B: acetonitrile + 0.1% formic acid, pH 3; gradient (min/%B) 0/0 1/0 11/100 13/100 14/0 16/0
Conditions: stereoisomer not certain

SMILES | LC retention time
NCCc1c[nH]c2ccccc12 [TRYPTAMINE] | 4.7 min
NC(=O)NCCC(=O)O [UREIDOPROPIONATE] | 0.82 min
CN1C(=O)CCC1c1cccnc1 (stereo not given) [Cotinine] | 0.83 min
Cn1cnc2c1c(=O)[nH]c(=O)n2C [THEOBROMINE] | 4.02 min
O=c1ccn(C2CC(O)C(CO)O2)c(=O)[nH]1 (stereo not given) [DEOXYURIDINE] | 1.24 min
CCCCCCCCC=CCCCCCCCC(=O)OCC(O)CO (stereo not given) [OLEOYL-GLYCEROL] | 12.1 min
NC(CCCC(N)C(=O)O)C(=O)O (stereo not given) [LL-2-6-DIAMINOHEPTANEDIOATE] | 0.6 min
CC(C)(N)C(=O)O [2-AMINOISOBUTYRATE] | 0.67 min
CC(=O)N[C@@H](Cc1ccc(O)cc1)C(=O)O [N-Acetyl-L-tyrosine] | 4.56 min
Nc1ccccc1C(=O)CC(N)C(=O)O (stereo not given) [KYNURENINE] | 3.31 min
O=P(O)(O)OCC1OC(O)(CO)C(O)C1O (stereo not given) [FRUCTOSE 6-PHOSPHATE] | 0.66 min
OC1C(O)C(O)C(O)C(O)C1O (stereo not given) [MYOINOSITOL] | 0.61 min
O=C(O)c1cc(O)cc(O)c1 [3-5-Dihydroxybenzoic acid] | 3.57 min
O=C(O)/C=C/c1c[nH]c2ccccc12 [trans-3-indoleacrylic acid] | 6.57 min
OCC1OC(O)C(O)C(O)C1O (stereo not given) [GALACTOSE] | 0.64 min
O=C(O)c1ccnc2ccccc12 [4-QUINOLINECARBOXYLIC ACID] | 1.29 min
Cc1cccnc1 [3-Methylpyridine (3-Picoline)] | 0.82 min
C/C(=C\C(=O)O)CC(=O)O [(E)-3-Methylglutaconic acid] | 4.1 min
CC(CCC(=O)O)CC(=O)O (stereo not given) [3-Methyladipic acid] | 5.01 min
CC12CCC(=O)C=C1CCC1C2CCC2(C)C1CCC2(O)C(=O)CO (stereo not given) [CORTEXOLONE] | 7.48 min

SMILES | LC retention time
COC(=O)Cc1c[nH]c2ccccc12 [INDOLE-3-METHYL ACETATE] | 7.44 min
CC(=O)NCCCNCCCCNCCCN [N1-ACETYLSPERMINE] | 0.5 min
C=CC1=C(C)C(=Cc2[nH]c(Cc3[nH]c(C=C4NC(=O)C(C)=C4C=C)c(C)c3CCC(=O)O)c(CCC(=O)O)c2C)NC1=O [BILIRUBIN] | 12.6 min
NC(Cc1cc(I)c(Oc2cc(I)c(O)c(I)c2)c(I)c1)C(=O)O (stereo not given) [THYROXINE] | 7.42 min
NCC(O)c1ccc(O)cc1 (stereo not given) [P-OCTOPAMINE] | 0.71 min
CCCCCCCC(=O)OC(CC(=O)[O-])C[N+](C)(C)C [Octanoyl-L-carnitine] | 6.74 min
COc1cc(C(O)C(=O)O)ccc1O (stereo not given) [3-METHOXY-4-HYDROXYMANDELATE] | 2.15 min
CCOC(N)=O [Urethane] | 2.11 min
CCCCCCCCCCCCCCCCCCCCCCC(=O)[O-] [TRICOSANOATE] | 14.6 min
CNC(CCC(=O)O)C(=O)O (stereo not given) [N-METHYLGLUTAMATE] | 0.66 min
Nc1ncnc2c1ncn2C1CC(O)C(CO)O1 (stereo not given) [DEOXYADENOSINE] | 1.09 min
OCC1OC(OCC2OC(OC3(CO)OC(CO)C(O)C3O)C(O)C(O)C2O)C(O)C(O)C1O (stereo not given) [RAFFINOSE] | 0.68 min
NCCc1ccccc1 [PHENETHYLAMINE] | 4.03 min
NCC(O)c1ccccc1 (stereo not given) [PHENYLETHANOLAMINE] | 2.24 min
O=c1ccc2ccccc2o1 [Coumarin] | 6.42 min
CCC(C(=O)O)C(=O)O [ETHYLMALONATE] | 3.77 min
O=C(O)c1ccc(O)cc1O [2-4-Dihydroxybenzoic acid] | 4.88 min
Nc1ccn(C2OC(CO)C3OP(=O)(O)OC32)c(=O)n1 (stereo not given) [CYTIDINE 2'-3'-CYCLIC PHOSPHATE] | 0.7 min
CC1NC(=O)NC1CCCCCC(=O)O (stereo not given) [DETHIOBIOTIN] | 5.47 min
O=C(O)CCc1ccc(O)cc1O [3-(2-4-Dihydroxyphenyl)propionic acid] | 4.83 min
